{"source": "paper PMC10208580", "about": "(Science Advances, 2023)", "origin": "cited, not measured here", "system": "RyRs", "conditions": "higher concentrations of ryanodine; cited from earlier work", "description": "Subconducting states have also been observed in the presence of low concentrations of ryanodine. At higher concentrations, however, addition of ryanodine results in full block ([25]). […] A previous cryo-EM study has resolved density for ryanodine in the pore-forming region, inside the inner vestibule below Gln^4933 ([15]). As this site is >13 Å away from IpCa, ryanodine and IpCa can bind to RyRs simultaneously (fig. S12). Whereas IpCa causes ..."}
{"substance": "ryanodine", "values": [{"measurement": "Effect on channel conductance at higher concentrations", "result": "full block"}]}
